Residues, ends and D or L forms follow the SMILES beside them.

The source of these data is patent US11236129B2, “IL-17A binding peptides and medical uses thereof” (Dompe' Farmaceutici S.P.A., priority 2018, dated 2022).

Data set [1] in a line: Isoelectric point, log D and log P (SiriusT3). It is filed as physicochemical. As to conditions: for IP (isoelectric point): 25±1° C., 0.15 M KCl; for logP: octanol/ISA water, read-out: logP; for logD: pH 7.4, pH 7.4, octanol/ISA water, read-out: Log D (7.4). The procedure:
The main physicochemical properties (Isoelectric point (IP), log D (7.4) and log P) of the peptides of Table 8 below were determined by using the SiriusT3 apparatus (Sirius Analytical Instruments Ltd., East Sussex, UK) equipped with an Ag/AgCl double junction reference pH electrode, a Sirius D-PAS spectrometer and a turbidity sensing device. […] An overhead stirrer was used and a temperature probe (Peltier controller) monitored the temperature during the course of the titration. The titration experiments were conducted in 0.15 M KCl Ionic Strength Adjusted solution (ISA water) under a nitrogen atmosphere at a temperature of 25±1° C. All tests were performed using standardized 0.5 M KOH and 0.5 M HCl as titration reagents, for the partition coefficient tests a saturated Octanol in ISA water (5% of ISA water) was used as partition solvent. The pKas were determined by potentiometric method by pH-metric titration. The powder (around 0.5 mg) was dissolved in 1.5 ml of ISA water and the titration was performed in triplicate in the pH range 2.0−12.0.

Data set [2] is classed as physicochemical. As to conditions: pH 7.8. The procedure:
Each lyophilized peptide was weighed in an amber vial. A calculated volume of phosphate buffered solution at pH 7.8 was added in order to directly obtain 10 mM Stock Solutions. The recovered suspensions were stirred for 30 minutes by orbital shaker incubator at 37° C. Subsequent dilutions were performed to obtain the more diluted stock solutions for the less soluble compounds.
In order to evaluate the stability and the solubility, all the stock solutions were stored at 25° C. The title was evaluated by UHPLC-MS analysis in comparison with the standard solutions, at 3 time points: T0, 3 days, 1 week.
The chromatographic profile was evaluated for the quantitative assay while the MS spectra were detected as support in the stability studies.
Each peptide was weighed and directly diluted at 100 μM with the phosphate buffer at pH 7.8. The solutions were stirred for 5 minutes by vortex and heated at 37° C. for 20 minutes. The obtained standard solution was stored at 25° C. in the dark under controlled temperature.
A portion of the stock solutions was collected in an amber vial and diluted to 100 μM by phosphate buffer at pH 7.8 (dilution factor, 1:100).
Reversed-phase UHPLC was performed operating at a flow rate of 0.3 ml/min with a Luna Omega Polar C18 column ([…] 1.6 μm, 2.1×100 mm). Solvent A was 0.5% Formic Acid in water and solvent B was 0.5% Formic Acid in acetonitrile. First, samples were loaded onto the column and washed isocratically at 10% B for 3 min. Then, a gradient of 10-95% B was run over 22 min, held at 95% for 2 min, and then decreased to 10% over 1 min and held, for the pressure stabilization, for 5 min. UV Absorption was monitored by DAD (220-400 nm). ESI-MS ion trap was used for the monitoring of TIC.

Data set [3] concerns the target IL-17RA/IL17RC dimerization induced by IL-17A (Homo sapiens, UniProt Q16552). Put plainly: IL-17RA/IL17RC dimerization assay in response to IL-17A (PathHunter Cytokine Receptor Assay). The class given is cell-based. As to conditions: IL-17A at EC80; read-out: IC50 in IL-17RA/IL7RC dimerization assay. In outline: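 PathHunter cells with IL-17RA and IL-17RC tagged for β-galactosidase complementation were preincubated 60 min with peptide (1% vehicle). IL-17A was then added at EC80 for 6–16 h at 37 °C, and chemiluminescence was read. Inhibition is relative to the EC80 and vehicle controls.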

IL-17RA/IL17RC dimerization induced by IL-17A, sequence (Q16552 24-155): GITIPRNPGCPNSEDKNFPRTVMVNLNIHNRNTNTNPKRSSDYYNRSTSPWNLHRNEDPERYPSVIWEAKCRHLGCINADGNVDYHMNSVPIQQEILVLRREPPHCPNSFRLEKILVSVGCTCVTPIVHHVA

Turning to `CC[C@H](C)[C@H](NC(=O)[C@H](Cc1c[nH]c2ccccc12)NC(=O)[C@H](CCC(=O)O)NC(=O)[C@H](Cc1ccc(O)cc1)NC(=O)[C@H](CC(C)C)NC(=O)[C@H](CC(=O)O)NC(=O)[C@H](C)NC(=O)[C@@H]1CCCN1C(=O)[C@@H](NC(=O)[C@@H](NC(=O)[C@@H](NC(=O)[C@H](CCSC)NC(=O)[C@@H](NC(C)=O)C(C)C)C(C)C)[C@@H](C)O)[C@@H](C)CC)C(=O)N[C@@H](CCCNC(=N)N)C(=O)N[C@@H](CCCNC(=N)N)C(N)=O` [SEQ ID NO: 17] (Ac-VMVTIPADLYEWIRR-NH2), in data set [1], the “IP (isoelectric point)” value was 8.05; the logP (commonly the decadic logarithm of the partition coefficient of the neutral form, usually between octanol and water) was -0.44; the logD is -3.68. In data set [2], the solubility (in general, the dissolved amount per volume that the medium holds) was more than 10000 µM. For the same compound, in data set [3], the IC50 was less than 400 nM.

With `CC[C@H](C)[C@H](NC(=O)[C@H](Cc1c[nH]c2ccccc12)NC(=O)[C@H](CCC(=O)O)NC(=O)[C@H](Cc1ccc(O)cc1)NC(=O)[C@H](CC(C)C)NC(=O)[C@H](CC(=O)O)NC(=O)[C@H](C)NC(=O)[C@@H]1CCCN1C(=O)[C@@H](NC(=O)[C@@H](NC(=O)[C@@H](NC(=O)[C@H](CCSC)NC(=O)[C@@H](NC(C)=O)C(C)C)C(C)C)[C@@H](C)O)[C@@H](C)CC)C(=O)N[C@@H](CCC(=O)O)C(=O)N[C@@H](CCC(=O)O)C(=O)N[C@@H](CCCNC(=N)N)C(=O)N[C@@H](CCCNC(=N)N)C(=O)N[C@@H](CCCNC(=N)N)C(=O)N[C@@H](CCCNC(=N)N)C(=O)N[C@@H](CCCNC(=N)N)C(=O)N[C@@H](CCCNC(=N)N)C(N)=O` [SEQ ID NO: 19] (Ac-VMVTIPADLYEWIEERRRRRR-NH2), in data set [1], the “IP (isoelectric point)” value stood at 12.49 and the logD was -3.94. The same compound displayed a solubility in data set [2] not below 100 µM. Also, in data set [3], the IC50 was less than 1000 nM.

Consider `CC[C@H](C)[C@H](NC(=O)[C@H](Cc1c[nH]c2ccccc12)NC(=O)[C@H](CCC(=O)O)NC(=O)[C@H](Cc1ccc(O)cc1)NC(=O)[C@H](CC(C)C)NC(=O)[C@H](CC(=O)O)NC(=O)[C@H](C)NC(=O)[C@@H]1CCCN1C(=O)[C@@H](NC(=O)[C@@H](NC(=O)[C@@H](NC(=O)[C@H](CCSC)NC(=O)[C@@H](NC(C)=O)C(C)C)C(C)C)[C@@H](C)O)[C@@H](C)CC)C(=O)N[C@@H](CCC(=O)O)C(=O)N[C@@H](CCC(=O)O)C(=O)N[C@@H](CCCNC(=N)N)C(=O)N[C@@H](CCCNC(=N)N)C(=O)N[C@@H](CCCNC(=N)N)C(N)=O` [SEQ ID NO: 20] (Ac-VMVTIPADLYEWIEERRR-NH2), for which, in data set [1], the “IP (isoelectric point)” value came to 11.29 and the logD is -3.69. This compound also came in with a solubility in data set [2] not below 100 µM. Besides, the IC50 in data set [3] was less than 1000 nM.

Regarding `CC[C@H](C)[C@H](NC(=O)[C@H](Cc1c[nH]c2ccccc12)NC(=O)[C@H](CCC(=O)O)NC(=O)[C@H](Cc1ccc(O)cc1)NC(=O)[C@H](CC(C)C)NC(=O)[C@H](CC(=O)O)NC(=O)[C@H](C)NC(=O)[C@@H]1CCCN1C(=O)[C@@H](NC(=O)[C@@H](NC(=O)[C@@H](NC(=O)[C@H](CCSC)NC(=O)[C@@H](NC(C)=O)C(C)C)C(C)C)[C@@H](C)O)[C@@H](C)CC)C(=O)N[C@@H](CCC(=O)O)C(=O)N[C@@H](CCC(=O)O)C(=O)N[C@@H](C)C(=O)N[C@@H](CCCNC(=N)N)C(=O)N[C@@H](CCCCN)C(=O)N[C@@H](CCCCN)C(=O)N[C@@H](C)C(=O)N[C@@H](C)C(=O)N[C@@H](CCCCN)C(=O)N[C@@H](C)C(N)=O` [SEQ ID NO: 21] (Ac-VMVTIPADLYEWIEEARKKAAKA-NH2), in data set [1], the “IP (isoelectric point)” value was found to be 10.6, the logP was -4.99 and the logD was -0.55. Also, the solubility in data set [2] is more than 10000 µM. Moreover, in data set [3], the IC50 was less than 1000 nM.

With `CC[C@H](C)[C@H](NC(=O)[C@H](Cc1c[nH]c2ccccc12)NC(=O)[C@H](CCC(=O)O)NC(=O)[C@H](Cc1ccc(O)cc1)NC(=O)[C@H](CC(C)C)NC(=O)[C@H](CC(=O)O)NC(=O)[C@H](C)NC(=O)[C@@H]1CCCN1C(=O)[C@@H](NC(=O)[C@@H](NC(=O)[C@@H](NC(=O)[C@H](CCSC)NC(=O)[C@@H](NC(C)=O)C(C)C)C(C)C)[C@@H](C)O)[C@@H](C)CC)C(=O)N[C@@H](CCC(=O)O)C(=O)N[C@@H](CCC(=O)O)C(=O)NCC(=O)NCC(=O)N[C@H](C(=O)N[C@@H](Cc1c[nH]c2ccccc12)C(=O)N[C@@H](Cc1c[nH]c2ccccc12)C(=O)N[C@H](C(=O)N[C@@H](CCC(=O)O)C(=O)N[C@@H](Cc1c[nH]c2ccccc12)C(=O)N[C@@H](CO)C(=O)N[C@@H](CCC(N)=O)C(N)=O)[C@@H](C)O)[C@@H](C)O` [SEQ ID NO: 22] (Ac-VMVTIPADLYEWIEEGGTWWTEWSQ-NH2), in data set [1], the “IP (isoelectric point)” value is recorded as 4.26, the logP came to 0.4 and the logD was -3.18. The compound further gave a solubility in data set [2] of more than 10000 µM. Moreover, in data set [3], the IC50 was less than 1000 nM.

As for `CC[C@H](C)[C@H](NC(=O)[C@H](Cc1c[nH]c2ccccc12)NC(=O)[C@H](CCC(=O)O)NC(=O)[C@H](Cc1ccc(O)cc1)NC(=O)[C@H](CC(C)C)NC(=O)[C@H](CC(=O)O)NC(=O)[C@H](C)NC(=O)[C@@H]1CCCN1C(=O)[C@@H](NC(=O)[C@@H](NC(=O)[C@@H](NC(=O)[C@H](CCSC)NC(=O)[C@@H](NC(C)=O)C(C)C)C(C)C)[C@@H](C)O)[C@@H](C)CC)C(=O)N[C@@H](CCC(=O)O)C(=O)N[C@@H](CCC(=O)O)C(=O)N[C@H](C(=O)N[C@@H](Cc1c[nH]c2ccccc12)C(=O)N[C@@H](Cc1c[nH]c2ccccc12)C(=O)N[C@@H](CCC(=O)O)C(=O)N[C@H](C(=O)N[C@@H](Cc1c[nH]c2ccccc12)C(=O)N[C@@H](Cc1c[nH]c2ccccc12)C(N)=O)[C@@H](C)O)[C@@H](C)O` [SEQ ID NO: 23] (Ac-VMVTIPADLYEWIEETWWETWW-NH2), in data set [1], the “IP (isoelectric point)” value is recorded as 4.26, the logP was 1.01 and the logD was -2.24. In data set [2], this compound registered a solubility not below 50 µM. The IC50 in data set [3] is less than 1000 nM.

Turning to `CC[C@H](C)[C@H](NC(=O)[C@H](Cc1c[nH]c2ccccc12)NC(=O)[C@H](CCC(=O)O)NC(=O)[C@H](Cc1ccc(O)cc1)NC(=O)[C@H](CC(C)C)NC(=O)[C@H](CC(=O)O)NC(=O)[C@H](C)NC(=O)[C@@H]1CCCN1C(=O)[C@@H](NC(=O)[C@@H](NC(=O)[C@@H](NC(=O)[C@H](CCSC)NC(=O)[C@@H](NC(C)=O)C(C)C)C(C)C)[C@@H](C)O)[C@@H](C)CC)C(=O)N[C@@H](CCC(=O)O)C(=O)N[C@@H](CCC(=O)O)C(=O)N[C@H](C(=O)N1CCC[C@H]1C(=O)NCC(=O)N[C@@H](Cc1c[nH]c2ccccc12)C(=O)NCC(N)=O)C(C)C` [SEQ ID NO: 24] (Ac-VMVTIPADLYEWIEEVPGWG-NH2), in data set [1], the “IP (isoelectric point)” value turned out to be 5.14, the logP stood at 2.45 and the logD turned out to be 2.15. In addition, the solubility in data set [2] was less than 50 µM. In data set [3], the IC50 is less than 1000 nM.

Turning to `CC[C@H](C)[C@H](NC(=O)[C@H](Cc1c[nH]c2ccccc12)NC(=O)[C@H](CCC(=O)O)NC(=O)[C@H](Cc1ccc(O)cc1)NC(=O)[C@H](CC(C)C)NC(=O)[C@H](CC(=O)O)NC(=O)[C@H](C)NC(=O)[C@@H]1CCCN1C(=O)[C@@H](NC(=O)[C@@H](NC(=O)[C@@H](NC(=O)[C@H](CCSC)NC(=O)[C@@H](NC(C)=O)C(C)C)C(C)C)[C@@H](C)O)[C@@H](C)CC)C(=O)N[C@@H](CCC(=O)O)C(=O)N[C@@H](CCC(=O)O)C(=O)NCC(=O)NCC(=O)N[C@@H](CCCCN)C(=O)N[C@@H](CCC(=O)O)C(=O)N[C@H](C(=O)N[C@@H](Cc1c[nH]c2ccccc12)C(=O)N[C@@H](Cc1c[nH]c2ccccc12)C(=O)N[C@@H](CCC(=O)O)C(=O)N[C@H](C(=O)N[C@@H](Cc1c[nH]c2ccccc12)C(N)=O)[C@@H](C)O)[C@@H](C)O` [SEQ ID NO: 25] (Ac-VMVTIPADLYEWIEEGGKETWWETW-NH2), in data set [1], the “IP (isoelectric point)” value turned out to be 4.66, the logP is 0.4 and the logD is -5.64. For the same compound, the solubility in data set [2] is not below 100 µM. In addition, the IC50 in data set [3] was less than 1000 nM.
